Like-named read-outs stand apart in the source and are kept apart here.
Tests used:
[1] = system: Akata cells; test: in vitro; format: cell-based, human
[2] = system: Herpes Simplex Virus 1 (HSV-1), E-377 strain; test: Plaque reduction assay for HSV-1 in HFF cells; format: cell-based; conditions: for EC50: read-out: HSV-1 EC50; for EC90: read-out: HSV-1 EC90
[3] = system: Herpes Simplex Virus 2 (HSV-2), MS strain; test: Plaque reduction assay for HSV-2 in HFF cells; format: cell-based; conditions: for EC50: read-out: HSV-2 EC50; for EC90: read-out: HSV-2 EC90
[4] = system: Human Cytomegalovirus (HCMV), AD169 strain; test: Plaque reduction assay for HCMV in HFF cells; format: cell-based; conditions: for EC50: read-out: HCMV EC50, control is GCV; for EC90: read-out: HCMV EC90, control is GCV
[5] = system: Epstein-Barr Virus (EBV), Akata; test: DNA hybridization assay for EBV in Akata cells; format: cell-based; conditions: 72 h; for EC50: read-out: EBV EC50; for EC90: read-out: EBV EC90
[6] = in vitro; format: cell-based, human; conditions: human
[7] = in vitro; format: cell-based, human; conditions: human; remark: listed apart in the source
[8] = system: HFF cells; test: in vitro; format: cell-based, human
[9] = Enzymatic hydrolysis in cornea homogenate; conditions: 100 μM prodrug, 0.5mg/mL protein, 34°C
[10] = system: HCEC cells; test: Cellular uptake study on HCEC cells; format: cell-based, human; conditions: sodium free DPBS, 37°C, relative to uptake with sodium
[11] = Enzymatic hydrolysis in iris-ciliary body; conditions: 100 μM prodrug, 34°C
[12] = Enzymatic hydrolysis in lens homogenate; conditions: 100 μM prodrug, 34°C
[13] = Akata cells, viral DNA accumulation
[14] = human gammaherpesvirus 4, Akata

SMILES | CC50 [1] [µM] | EC50 ([2]; E-377 strain, HFF cells) [µM] | EC90 ([2]; E-377 strain, HFF cells) [µM] | EC50 ([3]; MS strain, HFF cells) [µM] | EC90 ([3]; MS strain, HFF cells) [µM] | EC50 [4] [µM] | EC90 [4] [µM] | EC50 [5, 13] [µM] | EC90 [5, 13] [µM] | CC50 [6] [µM] | Cornea Rate constant [9] | CC50 [8] [µM] | Uptake in the presence of a sodium free buffer (reduced to) [10] [%] | other results
CCCCCCC(O)CCCCCCCCCCC(=O)OCCOCn1cnc2c(=O)[nH]c(N)nc21 (stereo not shown) [12HS-ACV, 12hydroxystearicacid-acyclovir] | 47.3 | 1.16 | 6.24 | 0.41 | > 300 | 101 | 137 | 35.8 | 55 | – | – | – | – | Increase in antiviral activity against HSV-1 relative to ACV (by EC50) ([2]; from EC50 values): greater than 3 fold; Increase in antiviral activity against HSV-2 relative to ACV (by EC50) ([3]; from EC50 values): > 15 fold
Nc1nc(O)c2ncn(COC(CO)CO)c2n1 [GCV, Ganciclovir, reference compound] | – | – | – | – | – | – | – | – | – | > 100 | – | – | – | –
Nc1nc2c(ncn2COCCO)c(=O)[nH]1 [ACV, Acyclovir, reference compound] | – | – | – | – | – | – | – | – | – | > 100 | – | – | – | CC50 [7]: > 100 µM; EC50 ([2]; Human alphaherpesvirus 1, HFF): 3.43 µM; EC90 ([2]; Human alphaherpesvirus 1, HFF): > 100 µM; EC50 ([3]; Human alphaherpesvirus 2, HFF): 5.98 µM; EC90 ([3]; Human alphaherpesvirus 2, HFF): > 100 µM; EC50 [5, 14]: 12.4 µM; EC90 [5, 14]: 67.3 µM; CC50 ([8]; human): > 100 µM
CCCCCCC(CCCCCCCCCCC(=O)OCCOCn1cnc2c(=O)[nH]c(N)nc21)OC(=O)CCCC[C@@H]1SC[C@@H]2NC(=O)N[C@@H]21 (stereo partly shown) [B-12HS-ACV, Biotin-12hydroxystearicacid-acyclovir] | > 60 | < 0.096 | 0.42 | < 0.096 | 4.65 | > 300 | > 300 | 37.2 | > 60 | – | 1.78 ± 0.29 k×10^3 min^−1 mg protein^-1 | > 300 | ~41 | –
CCCCCCC(O)CC=CCCCCCCCC(=O)OCCOCn1cnc2c(=O)[nH]c(N)nc21 (stereo not shown) [R-ACV, Ricinoleicacid-acyclovir] | > 60 | 8.3 | 168 | 3.4 | 8.89 | 46.5 | > 300 | 10.7 | 49.5 | – | – | > 300 | – | –
Nc1nc2c(ncn2COCCOC(=O)CCCC[C@@H]2SC[C@@H]3NC(=O)N[C@@H]32)c(=O)[nH]1 [B-ACV, Biotin-acyclovir] | > 60 | 182 | > 300 | > 300 | > 300 | – | – | 22.3 | 52.8 | – | 1.99 ± 0.21 k×10^3 min^−1 mg protein^-1 | – | ~45 | Degradation in ICB homogenate (in words) [11]: complete degradation; Cornea Half-life [9]: 5.80 ± 0.49 h; Degradation in lens homogenate (in words) [12]: complete degradation
